Assay results taken from patent US12678412B2, “Substituted tolans for the modulation of microbial colonization” (BioMendics, LLC, priority 2017, dated 2026).
Read-outs that look alike come from different tables or passages of the source.

How the values were obtained:
Type in all cases: cell-based
wild type E. Coli = assay: Control of microbial growth, wild type E. coli
S. typhimurium TA1535 = assay: Dose range finding colony forming assay, strain TA1535 without metabolic activation
Procedure: (§1) A series of dose range finding assays were performed with five bacterial strains, S. typhimurium TA97a, TA98, TA100, TA1535, and E. coli WP2 uvrA pKM101, with and without metabolic activation at three plates per dose. The following doses, along with positive and negative controls, were tested: 5000, 2500, 1250, 500, 250, 125, 50, 20, 10, 5, 2, 1, and 0.2 μg/plate. The plates were evaluated for toxicity (a decrease in plate counts with increasing dose and/or a visible thinning of the background lawn) and for precipitation of the test article. Metabolic activation was included in some samples by adding phenobarbital/benzoflavone-induced rat liver S9 fractions with cofactors (S9 mix). Prior to use, freshly thawed aliquots of rat liver S9 were mixed with a sterile cofactor mix. The S9 mix contains a 10% liver S9 concentration and was refrigerated or stored on ice until used. When testing with metabolic activation, the S9 mix was used in the assay tube in place of phosphate buffer.
(§2) Dosing formulations were prepared to deliver all doses in a constant volume of 0.1 mL. The highest dose was prepared from test article weighed to the nearest 0.1 mg and the remaining formulations were prepared as serial dilutions from the high dose stock formulation. Using a permanent marking pen or computer printed labels, assay plates were labeled with the project and study numbers and the date. Assay plates and tubes were labeled with a unique identifier, which was used to match the assay tubes with the properly identified minimal glucose agar plate.
(§3) The pre-incubation method was used to perform the assay. The assay mix consisted of 0.1 mL of the test article formulation or control article, 0.5 mL S9 mix or phosphate buffer, and 0.1 mL of bacterial culture. Assay tubes were incubated at 37±1° C. with gentle agitation for 20±1 minutes, then 2.0-2.5 mL top agar was added to the assay mix and the top agar/assay mix poured onto appropriately labeled minimal glucose agar plates. Once the top agar hardened, the plates were inverted and incubated at 37±1° C. for 48±2 hours. Plates were counted with the Sorcerer (v. 2.2)/Ames Study Manager (v. 1.2.4) system from Perceptive Instruments (Suffolk, UK). With this system, plate counts are automatically transferred from the plate imager (Sorcerer) to a Study Manager spreadsheet, and the data are stored in a secure manner on an Oracle database. Some plates were hand counted, e.g., if sample precipitate interferes with automatic counting or toxicity results in the formation of microcolonies, in which case, counts for these plates were entered into the spreadsheet manually. Plates were scored also with the extent of colonization by a post fix code.

S. typhimurium TA98 = assay: Dose range finding colony forming assay, strain TA98 with metabolic activation
Procedure: as §1, §2, §3

E. coli WP2 uvrA pKM101 = conditions: without metabolic activation
Procedure: as §1, §2, §3

COc1ccc(C#Cc2ccc(O)cc2)cc1 [BM3103, 4-hydroxy-4′-methoxytolan]
Effectiveness against wild type E. Coli (wild type E. Coli): effective
Colony forming units/plate (S. typhimurium TA1535; 0.2 μg/plate): 12.0 colony forming units/plate
Individual colony counts (S. typhimurium TA1535; 0.2 μg/plate): 12
Colony forming units/plate (S. typhimurium TA1535; 1 μg/plate): 11.0 colony forming units/plate
Individual colony counts (S. typhimurium TA1535; 1 μg/plate): 11
Colony forming units/plate (S. typhimurium TA1535; 2 μg/plate): 10.0 colony forming units/plate
Individual colony counts (S. typhimurium TA1535; 2 μg/plate): 10
Colony forming units/plate (S. typhimurium TA1535; 5 μg/plate): 6.0 colony forming units/plate
Individual colony counts (S. typhimurium TA1535; 5 μg/plate): 6
Colony forming units/plate (S. typhimurium TA1535; 10 μg/plate): 0.0 colony forming units/plate
Individual colony counts (S. typhimurium TA1535; 10 μg/plate): 0
Plate postfix code (individual colony counts) (S. typhimurium TA1535; 10 μg/plate): A T
Colony forming units/plate (S. typhimurium TA1535; 20 μg/plate): 0.0 colony forming units/plate
Individual colony counts (S. typhimurium TA1535; 20 μg/plate): 0
Colony forming units/plate (S. typhimurium TA1535; 50 μg/plate): 0.0 colony forming units/plate
Individual colony counts (S. typhimurium TA1535; 50 μg/plate): 0
Colony forming units/plate (S. typhimurium TA1535; 125 μg/plate): 0.0 colony forming units/plate
Individual colony counts (S. typhimurium TA1535; 125 μg/plate): 0
Colony forming units/plate (S. typhimurium TA1535; 250 μg/plate): 0.0 colony forming units/plate
Individual colony counts (S. typhimurium TA1535; 250 μg/plate): 0
Colony forming units/plate (S. typhimurium TA1535; 500 μg/plate): 0.0 colony forming units/plate
Individual colony counts (S. typhimurium TA1535; 500 μg/plate): 0
Colony forming units/plate (S. typhimurium TA1535; 1250 μg/plate): 0.0 colony forming units/plate
Individual colony counts (S. typhimurium TA1535; 1250 μg/plate): 0
Plate postfix code (individual colony counts) (S. typhimurium TA1535; 1250 μg/plate): A P
Colony forming units/plate (S. typhimurium TA1535; 2500 μg/plate): 0.0 colony forming units/plate
Individual colony counts (S. typhimurium TA1535; 2500 μg/plate): 0
Plate postfix code (individual colony counts) (S. typhimurium TA1535; 2500 μg/plate): A P
Colony forming units/plate (S. typhimurium TA1535; 5000 μg/plate): 0.0 colony forming units/plate
Individual colony counts (S. typhimurium TA1535; 5000 μg/plate): 0
Plate postfix code (individual colony counts) (S. typhimurium TA1535; 5000 μg/plate): A P
Colony forming units/plate (S. typhimurium TA98; 1 μg/plate): 8.0 colony forming units/plate
Individual colony counts (S. typhimurium TA98; 1 μg/plate): 8
Colony forming units/plate (S. typhimurium TA98; 2 μg/plate): 18.0 colony forming units/plate
Individual colony counts (S. typhimurium TA98; 2 μg/plate): 18
Colony forming units/plate (S. typhimurium TA98; 5 μg/plate): 16.0 colony forming units/plate
Individual colony counts (S. typhimurium TA98; 5 μg/plate): 16
Colony forming units/plate (S. typhimurium TA98; 10 μg/plate): 16.0 colony forming units/plate
Individual colony counts (S. typhimurium TA98; 10 μg/plate): 16
Colony forming units/plate (S. typhimurium TA98; 20 μg/plate): 0.0 colony forming units/plate
Individual colony counts (S. typhimurium TA98; 20 μg/plate): 0
Colony forming units/plate (S. typhimurium TA98; 50 μg/plate): 0.0 colony forming units/plate
Individual colony counts (S. typhimurium TA98; 50 μg/plate): 0
Colony forming units/plate (S. typhimurium TA98; 125 μg/plate): 0.0 colony forming units/plate
Individual colony counts (S. typhimurium TA98; 125 μg/plate): 0
Colony forming units/plate (S. typhimurium TA98; 250 μg/plate): 0.0 colony forming units/plate
Individual colony counts (S. typhimurium TA98; 250 μg/plate): 0
Colony forming units/plate (S. typhimurium TA98; 500 μg/plate): 0.0 colony forming units/plate
Individual colony counts (S. typhimurium TA98; 500 μg/plate): 0
Plate postfix code (individual colony counts) (S. typhimurium TA98; 500 μg/plate): A P
Colony forming units/plate (S. typhimurium TA98; 1250 μg/plate): 0.0 colony forming units/plate
Individual colony counts (S. typhimurium TA98; 1250 μg/plate): 0
Plate postfix code (individual colony counts) (S. typhimurium TA98; 1250 μg/plate): A P
Colony forming units/plate (S. typhimurium TA98; 2500 μg/plate): 0.0 colony forming units/plate
Individual colony counts (S. typhimurium TA98; 2500 μg/plate): 0
Plate postfix code (individual colony counts) (S. typhimurium TA98; 2500 μg/plate): A P
Colony forming units/plate (S. typhimurium TA98; 5000 μg/plate): 0.0 colony forming units/plate
Individual colony counts (S. typhimurium TA98; 5000 μg/plate): 0
Plate postfix code (individual colony counts) (S. typhimurium TA98; 5000 μg/plate): A P
Colony forming units/plate (E. coli WP2 uvrA pKM101; 20 μg/plate): 138.0 colony forming units/plate
Individual colony counts (E. coli WP2 uvrA pKM101; 20 μg/plate): 138
Colony forming units/plate (E. coli WP2 uvrA pKM101; 50 μg/plate): 14.0 colony forming units/plate
Individual colony counts (E. coli WP2 uvrA pKM101; 50 μg/plate): 14
Colony forming units/plate (E. coli WP2 uvrA pKM101; 125 μg/plate): 0.0 colony forming units/plate
Individual colony counts (E. coli WP2 uvrA pKM101; 125 μg/plate): 0
Colony forming units/plate (E. coli WP2 uvrA pKM101; 250 μg/plate): 0.0 colony forming units/plate
Individual colony counts (E. coli WP2 uvrA pKM101; 250 μg/plate): 0
Plate postfix code (individual colony counts) (E. coli WP2 uvrA pKM101; 250 μg/plate): A P
Colony forming units/plate (E. coli WP2 uvrA pKM101; 500 μg/plate): 0.0 colony forming units/plate
Individual colony counts (E. coli WP2 uvrA pKM101; 500 μg/plate): 0
Plate postfix code (individual colony counts) (E. coli WP2 uvrA pKM101; 500 μg/plate): A P
Colony forming units/plate (E. coli WP2 uvrA pKM101; 1250 μg/plate): 0.0 colony forming units/plate
Individual colony counts (E. coli WP2 uvrA pKM101; 1250 μg/plate): 0
Colony forming units/plate (E. coli WP2 uvrA pKM101; 2500 μg/plate): 0.0 colony forming units/plate
Individual colony counts (E. coli WP2 uvrA pKM101; 2500 μg/plate): 0
Plate postfix code (individual colony counts) (E. coli WP2 uvrA pKM101; 2500 μg/plate): A P
Colony forming units/plate (E. coli WP2 uvrA pKM101; 5000 μg/plate): 0.0 colony forming units/plate
Individual colony counts (E. coli WP2 uvrA pKM101; 5000 μg/plate): 0
Plate postfix code (individual colony counts) (E. coli WP2 uvrA pKM101; 5000 μg/plate): A P
